Test results published in patent US20100317647A1 (priority 2009, published 2010).

Target: human Cat S (Homo sapiens, UniProt P25774)
Assay: Cathepsin enzyme inhibition assay (fluorogenic peptide substrate cleavage)
Format: biochemical
Details: human Cat S 1 nM; substrate Z-Val-Val-Arg-AMC 20 μM; pH 6.5; fluorescence over 20 minutes
Summary of the method: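 IC50 values derived from fluorescence increase (ex 360 nm, em 465 nm) monitored for 20 minutes after substrate addition. Enzyme held at 1 nM with 20 μM Z-Val-Val-Arg-AMC, in pH 6.5 potassium phosphate buffer containing DTT, EDTA and Triton X-100.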

human Cat S, sequence (P25774 115-331): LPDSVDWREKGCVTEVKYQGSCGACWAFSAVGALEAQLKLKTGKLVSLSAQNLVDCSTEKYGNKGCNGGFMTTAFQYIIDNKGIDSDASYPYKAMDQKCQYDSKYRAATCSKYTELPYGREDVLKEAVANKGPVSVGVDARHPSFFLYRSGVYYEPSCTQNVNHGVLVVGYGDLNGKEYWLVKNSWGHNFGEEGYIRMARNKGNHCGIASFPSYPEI

SMILES | IC50 [nM]
CO[C@@H]1C[C@H](S(=O)(=O)c2ccc(-n3cc(C)cn3)cc2Cl)C[C@H]1C(=O)NC1(C#N)CC1 (racemic) [Example 149, (1R,2R,4R) and (1S,2S,4S)-4-[2-Chloro-4-(4-methyl-pyrazol-1-yl)-benzenesulfonyl]-2-methoxy-cyclopentanecarboxylic acid (1-cyano-cyclopropyl)-amide] | 1.93
Cc1ccc(CO[C@@H]2C[C@H](S(=O)(=O)c3ccccc3Cl)C[C@H]2C(=O)NC2(C#N)CC2)cc1 (racemic) [Example 150, (1R,2R,4R) and (1S,2S,4S)-4-(2-Chlorophenylsulfonyl)-N-(1-cyanocyclopropyl)-2-(4-methylbenzyloxy)cyclopentanecarboxamide] | 4.15
N#CC1(NC(=O)[C@@H]2C[C@@H](S(=O)(=O)c3ccccc3Cl)C[C@H]2OCc2ccc(Cl)cc2C(F)(F)F)CC1 (racemic) [Example 151, (1R,2R,4R) and (1S,2S,4S)-2-(4-Chloro-2-(trifluoromethyl)benzyloxy)-4-(2-chlorophenylsulfonyl)-N-(1-cyanocyclopropyl)cyclopentanecarboxamide] | 2.99
N#CC1(NC(=O)[C@@H]2C[C@@H](S(=O)(=O)c3ccccc3Cl)C[C@H]2OCc2ccc(Br)cc2)CC1 (racemic) [Example 154, (1R,2R,4R) and (1S,2S,4S)-2-(4-Bromo-benzyloxy)-4-(2-chloro-benzenesulfonyl)-cyclopentanecarboxylic acid (1-cyano-cyclopropyl)-amide] | 7.55
Cc1cc(-c2ccc(S(=O)(=O)[C@H]3C[C@@H](OC4CCOCC4)[C@H](C(=O)NC4(C#N)CC4)C3)c(C(F)(F)F)c2)ccn1 (racemic) [Example 174, (1R,2R,4R) and (1S,2S,4S)-4-[4-(2-Methyl-pyridin-4-yl)-2-trifluoromethyl-benzenesulfonyl]-2-(tetrahydro-pyran-4-yloxy)-cyclopentanecarboxylic acid (1-cyano-cyclopropyl)-amide] | 0.17
N#CC1(NC(=O)[C@@H]2C[C@@H](S(=O)(=O)c3ccccc3C(F)(F)F)C[C@H]2OC2CCOCC2)CC1 (racemic) [Example 175, (1R,2R,4R) and (1S,2S,4S)-2-(Tetrahydro-pyran-4-yloxy)-4-(2-trifluoromethyl-benzenesulfonyl)-cyclopentanecarboxylic acid (1-cyano-cyclopropyl)-amide] | 0.48
N#CC1(NC(=O)[C@@H]2C[C@@H](S(=O)(=O)c3ccccc3Cl)C[C@H]2OCc2cc(F)c(Cl)cc2Cl)CC1 (racemic) [Example 180, (1R,2R,4R) and (1S,2S,4S)-4-(2-Chlorophenylsulfonyl)-N-(1-cyanocyclopropyl)-2-(2,4-dichloro-5-fluorobenzyloxy)cyclopentanecarboxamide] | 157
N#CC1(NC(=O)[C@@H]2C[C@@H](S(=O)(=O)c3ccc(Br)cc3C(F)(F)F)C[C@H]2OC2CCC2)CC1 (racemic) [Example 182, (1R,2R,4R) and (1S,2S,4S)-4-(4-Bromo-2-trifluoromethyl-benzenesulfonyl)-2-cyclobutoxy-cyclopentanecarboxylic acid (1-cyano-cyclopropyl)-amide] | 3.8
Cc1cc(-c2ccc(S(=O)(=O)[C@H]3C[C@@H](OC4CCS(=O)(=O)CC4)[C@H](C(=O)NC4(C#N)CC4)C3)c(C(F)(F)F)c2)ccn1 (racemic) [Example 183, (1R,2R,4R) and (1S,2S,4S)-2-[(tetrahydro-1,1-dioxo-2H-thiopyran-4-yl)oxy]-4-[4-(2-methyl-pyridin-4-yl)-2-trifluoromethyl-benzenesulfonyl]-cyclopentanecarboxylic acid (1-cyano-cyclopropyl)-amide] | 0.2
Cn1cc(-c2ccc(S(=O)(=O)[C@H]3C[C@@H](OC4CCS(=O)(=O)CC4)[C@H](C(=O)NC4(C#N)CC4)C3)c(C(F)(F)F)c2)cn1 (racemic) [Example 184, (1R,2R,4R) and (1S,2S,4S)-2-[(tetrahydro-1,1-dioxo-2H-thiopyran-4-yl)oxy]-4-[4-(1-methyl-1H-pyrazol-4-yl)-2-trifluoromethyl-benzenesulfonyl]-cyclopentanecarboxylic acid (1-cyano-cyclopropyl)-amide] | 0.16

Now from value to compound:

IC50 [nM] | SMILES
1.5 | CO[C@@H]1C[C@H](S(=O)(=O)c2ccc(N3CCN(C)CC3)cc2C(F)(F)F)C[C@H]1C(=O)NC1(C#N)CC1 (racemic) [Example 161, (1R,2R,4R) and (1S,2S,4S)-2-Methoxy-4-[4-(4-methyl-piperazin-1-yl)-2-trifluoromethyl-benzenesulfonyl]-cyclopentanecarboxylic acid (1-cyano-cyclopropyl)-amide]
1.23 | N#CC1(NC(=O)[C@@H]2C[C@@H](S(=O)(=O)c3ccc(Br)cc3C(F)(F)F)C[C@H]2OC2CCOCC2)CC1 (racemic) [Example 169, (1R,2R,4R) and (1S,2S,4S)-4-(4-Bromo-2-trifluoromethyl-benzenesulfonyl)-2-(tetrahydro-pyran-4-yloxy)-cyclopentanecarboxylic acid (1-cyano-cyclopropyl)-amide]
0.587 | CO[C@@H]1C[C@H](S(=O)(=O)c2ccc(-c3cnn(CCO)c3)cc2C(F)(F)F)C[C@H]1C(=O)NC1(C#N)CC1 (racemic) [Example 170, (1R,2R,4R) and (1S,2S,4S)-4-{4-[1-(2-Hydroxy-ethyl)-1H-pyrazol-4-yl]-2-trifluoromethyl-benzenesulfonyl}-2-methoxy-cyclopentanecarboxylic acid (1-cyano-cyclopropyl)-amide]
1.2 | CO[C@@H]1C[C@H](S(=O)(=O)c2ccc(-c3ccccc3)cc2C(F)(F)F)C[C@H]1C(=O)NC1(C#N)CC1 (racemic) [Example 171, (1R,2R,4R) and (1S,2S,4S)-2-Methoxy-4-(3-trifluoromethyl-biphenyl-4-sulfonyl)-cyclopentanecarboxylic acid (1-cyano-cyclopropyl)-amide]
0.435 | COCCn1cc(-c2ccc(S(=O)(=O)[C@H]3C[C@@H](OC)[C@H](C(=O)NC4(C#N)CC4)C3)c(C(F)(F)F)c2)cn1 (racemic) [Example 172, (1R,2R,4R) and (1S,2S,4S)-2-Methoxy-4-{4-[1-(2-methoxy-ethyl)-1H-pyrazol-4-yl]-2-trifluoromethyl-benzenesulfonyl}-cyclopentanecarboxylic acid (1-cyano-cyclopropyl)-amide]
0.217 | Cn1cc(-c2ccc(S(=O)(=O)[C@H]3C[C@@H](OC4CCOCC4)[C@H](C(=O)NC4(C#N)CC4)C3)c(C(F)(F)F)c2)cn1 (racemic) [Example 173, (1R,2R,4R) and (1S,2S,4S)-4-[4-(1-Methyl-1H-pyrazol-4-yl)-2-trifluoromethyl-benzenesulfonyl]-2-(tetrahydro-pyran-4-yloxy)-cyclopentanecarboxylic acid (1-cyano-cyclopropyl)-amide]
1.47 | CO[C@@H]1C[C@H](S(=O)(=O)c2ccc(N3CCOCC3)cc2C(F)(F)F)C[C@H]1C(=O)NC1(C#N)CC1 (racemic) [Example 176, (1R,2R,4R) and (1S,2S,4S)-2-Methoxy-4-(4-morpholin-4-yl-2-trifluoromethyl-benzenesulfonyl)-cyclopentanecarboxylic acid (1-cyano-cyclopropyl)-amide]
0.923 | CO[C@@H]1C[C@H](S(=O)(=O)c2ccc(N3CCN(C(C)C)CC3)cc2C(F)(F)F)C[C@H]1C(=O)NC1(C#N)CC1 (racemic) [Example 177, (1R,2R,4R) and (1S,2S,4S)-4-[4-(4-Isopropyl-piperazin-1-yl)-2-trifluoromethyl-benzenesulfonyl]-2-methoxy-cyclopentanecarboxylic acid (1-cyano-cyclopropyl)-amide]
0.885 | CO[C@@H]1C[C@H](S(=O)(=O)c2ccc(N3CCC(F)(F)CC3)cc2C(F)(F)F)C[C@H]1C(=O)NC1(C#N)CC1 (racemic) [Example 178, (1R,2R,4R) and (1S,2S,4S)-4-[4-(4,4-Difluoro-piperidin-1-yl)-2-trifluoromethyl-benzenesulfonyl]-2-methoxy-cyclopentanecarboxylic acid (1-cyano-cyclopropyl)-amide]
0.3 | COC(=O)Cn1cc(-c2ccc(S(=O)(=O)[C@H]3C[C@@H](OC)[C@H](C(=O)NC4(C#N)CC4)C3)c(C(F)(F)F)c2)cn1 (racemic) [Example 179, (4-{4-[(1R,3R,4R) and (1S,3S,4S)-3-(1-Cyano-cyclopropylcarbamoyl)-4-methoxy-cyclopentanesulfonyl]-3-trifluoromethyl-phenyl}-pyrazol-1-yl)-acetic acid methyl ester]
1.32 | N#CC1(NC(=O)[C@@H]2C[C@@H](S(=O)(=O)c3ccc(Br)cc3C(F)(F)F)C[C@H]2OC2CCS(=O)(=O)CC2)CC1 (racemic) [Example 181, (1R,2R,4R) and (1S,2S,4S)-4-(4-Bromo-2-trifluoromethyl-benzenesulfonyl)-2-[(tetrahydro-1,1-dioxo-2H-thiopyran-4-yl)oxy]-cyclopentanecarboxylic acid (1-cyano-cyclopropyl)-amide]
0.725 | CO[C@@H]1C[C@H](S(=O)(=O)c2ccc(-c3cnn(CC(=O)O)c3)cc2C(F)(F)F)C[C@H]1C(=O)NC1(C#N)CC1 (racemic) [Example 185, (4-{4-[(1R,3R,4R) and (1S,3S,4S)-3-(1-Cyano-cyclopropylcarbamoyl)-4-methoxy-cyclopentanesulfonyl]-3-trifluoromethyl-phenyl}-pyrazol-1-yl)-acetic acid]
1.67 | CO[C@@H]1C[C@H](S(=O)(=O)c2ccc(N3CCN(CC(F)(F)F)CC3)cc2C(F)(F)F)C[C@H]1C(=O)NC1(C#N)CC1 (racemic) [Example 193, (1R,2R,4R) and (1S,2S,4S)-2-Methoxy-4-{4-[4-(2,2,2-trifluoro-ethyl)-piperazin-1-yl]-2-trifluoromethyl-benzenesulfonyl}-cyclopentanecarboxylic acid (1-cyano-cyclopropyl)-amide]
